This is an account of results in PMC3112382, “Crystal structures of a halophilic archaeal malate synthase from Haloferax volcanii and comparisons with isoforms A and G” (BMC Structural Biology, 2011).

In experiment [1] the target is T1, H. volcanii malate synthase isoform H (hvMSH) (Haloferax volcanii, UniProt D4GTL2).
T1 construct: gene aceB; full-length native enzyme, purified from H. volcanii grown on acetate, no tag; trimer/hexamer equilibrium
T1 sequence (D4GTL2 1-433): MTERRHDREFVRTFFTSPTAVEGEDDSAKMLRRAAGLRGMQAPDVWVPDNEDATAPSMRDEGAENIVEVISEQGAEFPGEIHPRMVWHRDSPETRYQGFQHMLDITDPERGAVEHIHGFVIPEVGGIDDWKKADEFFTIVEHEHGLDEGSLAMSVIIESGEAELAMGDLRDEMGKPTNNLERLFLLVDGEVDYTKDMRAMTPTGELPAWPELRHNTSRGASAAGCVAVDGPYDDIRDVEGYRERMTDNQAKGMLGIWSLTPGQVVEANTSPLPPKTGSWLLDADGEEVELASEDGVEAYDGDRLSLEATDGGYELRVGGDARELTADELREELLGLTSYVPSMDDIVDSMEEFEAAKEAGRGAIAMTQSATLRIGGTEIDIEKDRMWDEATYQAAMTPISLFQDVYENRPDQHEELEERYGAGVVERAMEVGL
In words: X-ray crystal structure, […] Å. As to conditions: ~0.15 M acetyl-CoA, ~70 mM pyruvate, 50 mM MgCl2 soak, active site. In kind it is binding.

Experiment [2] concerns the target T1, H. volcanii malate synthase isoform H (hvMSH). In words: X-ray crystal structure, […] Å. In kind it is binding. As to conditions: ~0.1 M glyoxylate and ~0.1 M MgCl2 soak; active site, on Mg2+; second, weak glyoxylate at acetyl-CoA thioester position; low-occupancy complex (3 mM glyoxylate) is 3PUG.

Regarding `CC(=O)SCCNC(=O)CCNC(=O)[C@H](O)C(C)(C)COP(=O)(O)OP(=O)(O)OC[C@H]1O[C@@H](n2cnc3c(N)ncnc32)[C@H](O)[C@@H]1OP(=O)(O)O` [acetyl-coenzyme A], the “X-ray crystal structure, 1.95 Å” value in experiment [1] (ternary complex with pyruvate) is “one molecule of pyruvate, one molecule of acetyl-CoA, one magnesium ion”.

On to `O=CC(=O)O` [glyoxylate], for which the “X-ray crystal structure, 2.51 Å” value in experiment [2] is reported as “One glyoxylate molecule is bound to the Mg2+ at the active site”.

On to `CC(=O)C(=O)O` [pyruvate], for which, in experiment [1] (ternary complex with acetyl-CoA, glyoxylate position), the “X-ray crystal structure, 1.95 Å” value is given as “one molecule of pyruvate, one molecule of acetyl-CoA, one magnesium ion”.
